Test results from PubChem BioAssay (NCI).
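The compound was tested at five concentrations on cells cultured in 96-well plates, with a 48-hour exposure period. GI50 is the concentration that inhibits growth by half. TGI marks complete inhibition of growth.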

Tests used:
Test in all cases: NCI-60 cell line screen, 48 h
ACHN renal = tested on: ACHN renal
DU-145 prostate = tested on: DU-145 prostate
HS 578T breast = tested on: HS 578T breast
NCI-H522 lung = tested on: NCI-H522 lung
OVCAR-4 ovarian = tested on: OVCAR-4 ovarian
UACC-257 melanoma = tested on: UACC-257 melanoma
HCT-15 colon = tested on: HCT-15 colon

Row | Structure (SMILES) | TGI (ACHN renal) [µM] | TGI (DU-145 prostate) [µM] | TGI (HS 578T breast) [µM] | TGI (NCI-H522 lung) [µM] | TGI (OVCAR-4 ovarian) [µM] | TGI (UACC-257 melanoma) [µM] | TGI (HCT-15 colon) [µM] | GI50 (ACHN renal) [µM] | GI50 (DU-145 prostate) [µM] | GI50 (HCT-15 colon) [µM] | GI50 (NCI-H522 lung) [µM] | GI50 (OVCAR-4 ovarian) [µM] | GI50 (UACC-257 melanoma) [µM] | GI50 (HS 578T breast) [µM]
1 | O=C1C2CC(Cl)C(SSC3CC4C(=O)N(SC(Cl)(Cl)C(Cl)Cl)C(=O)C4CC3Cl)CC2C(=O)N1SC(Cl)(Cl)C(Cl)Cl (stereo not given) | 6.66 | 9.44 | > 22.8 | 1.5 | 4.31 | 5.79 | – | – | – | – | – | – | – | –
2 | O=C1CC(=O)N(C2CCCCC2)C(=O)N1c1ccccc1S(=O)(=O)Oc1ccccc1 | 36.5 | > 100 | – | – | > 100 | > 100 | > 100 | – | – | – | – | – | – | –
3 | OB([O][Hg][c]1ccccc1)[O][Hg][c]1ccccc1 | 1.39 | 2.29 | – | 0.0752 | 2.01 | 1.14 | 0.354 | 0.493 | 0.873 | 0.141 | 0.0279 | 0.334 | 0.317 | –
4 | COc1cc2c(cc1OC)C(=O)C(Br)CC2 (stereo not given) | 3.7 | 16.2 | 37.4 | 3.17 | – | 11.3 | 7.37 | 1.86 | 4.61 | 2.33 | 1.57 | – | 3.02 | 7.48
5 | O=C(c1cccs1)c1c(C(F)(F)F)n([O-])c2ccc(C(F)(F)F)cc2[n+]1=O | 0.326 | 0.576 | – | 0.455 | 0.531 | 3.15 | 0.73 | 0.183 | 0.234 | 0.286 | 0.204 | 0.224 | 1.59 | –
6 | CC12OC(C(=O)C13CC3)C1C(=O)c3ccccc3C(=O)C12 (stereo not given) | – | – | 63.9 | > 100 | – | 68.8 | – | – | – | – | 53.3 | – | 27.7 | 22.6
7 | COc1cc(-c2cc(C(=O)N3CCN(C(=O)c4ccccc4NCc4ccco4)CC3)nc3cc(-c4ccccc4)nn23)cc(OC)c1OC | > 100 | – | > 29.3 | > 26.5 | > 100 | > 100 | > 100 | 6.97 | – | 3.4 | 0.859 | > 26.1 | 3.92 | 3.1
8 | O=[N+]([O-])c1ccc(N/N=C\c2cc(Cl)ccc2O)nc1 | 39.4 | 13.1 | > 100 | – | 13.7 | 7.38 | > 100 | 0.696 | 1.22 | 0.735 | – | 1.72 | 1.82 | 7.33
9 | COc1cc2cc(Oc3ccc(NC(=O)Nc4cccc(C(F)(F)F)c4)cc3)c(C)nc2cc1OCCN1CCCCC1 | 3.06 | 3.06 | – | 3.33 | 3.39 | 3.48 | – | 1.69 | 1.68 | – | 1.67 | 1.66 | 1.86 | –
10 | CC(=O)[CH-]C(=O)c1ccccc1.CC(=O)[CH-]C(=O)c1ccccc1.CCN(CC)CC[O-].CCN(CC)CC[O-].Cl.[Ti+4] | > 100 | – | – | 43 | > 100 | 96.1 | > 100 | 39.5 | – | 36.4 | 17.1 | 56.5 | 24.3 | –
11 | Cc1ccc2c(c1)NC(c1ccc(C(=O)O)cc1)c1cccn1-2 (stereo not given) | 42.6 | 71.4 | – | – | 64 | > 100 | > 100 | – | – | – | – | – | – | –
12 | COc1ccc(N(C)c2nc(C)nc3ccccc23)cc1 | > 91.8 | – | > 100 | < 0.01 | > 100 | 27 | > 100 | < 0.01 | – | < 0.01 | < 0.01 | < 0.01 | 11.3 | < 0.01
13 | Cc1ccc(S(=O)(=O)N/N=C/C(Br)=C(/Br)C(=O)O)cc1 | 8.75 | 26.9 | 45.2 | – | 19.7 | 26.8 | 8.67 | – | – | – | – | – | – | –
14 | COC(=O)Nc1nc2ccc(C(=O)c3ccc[nH]3)cc2[nH]1 | > 100 | > 23.2 | > 100 | – | > 100 | – | > 100 | – | – | – | – | – | – | –
15 | C1CCC([PH+](C2CCCCC2)C2CCCCC2[PH+](C2CCCCC2)C2CCCCC2)CC1.[Au].[CH-]1CCCCC1C1CCCC[N-]1 (stereo not given) | 2.17 | 2.44 | – | – | – | 2.24 | 3.03 | 1 | 0.401 | 1.5 | – | – | 0.329 | –
16 | C[C@@H](c1ccc2nccn2c1)n1nnc2ncc(-c3cnn(C)c3)nc21 | > 100 | – | > 100 | > 100 | > 100 | > 100 | > 100 | > 100 | – | > 100 | > 100 | 65.1 | > 100 | > 100
17 | Cc1ccc(-c2c(C#N)c(N)nc(N3CCOCC3)c2C#N)o1 | – | > 100 | > 100 | > 100 | > 100 | > 100 | – | – | 43.5 | – | 36.4 | 55.5 | 99.8 | 39.2
